# Data: patent US20260285855A1, “HETEROARYL DERIVATIVES AS DDRS INHIBITORS” (CHIESI FARMACEUTICI S.P.A., priority 2023, published 2026)
# What was measured:
# DDR2 = target: T1, DDR2 (Homo sapiens, UniProt Q16832); test: LanthaScreen Europium Kinase Binding assay, DDR2; details: 5 nM DDR2, 10 nM Kinase Tracer 178, 1 h at rt; Ki from IC50 by Cheng-Prusoff; read-out: Ki DDR2
# T1 construct: purchased Life Technologies
# T1 sequence (Q16832 22-855): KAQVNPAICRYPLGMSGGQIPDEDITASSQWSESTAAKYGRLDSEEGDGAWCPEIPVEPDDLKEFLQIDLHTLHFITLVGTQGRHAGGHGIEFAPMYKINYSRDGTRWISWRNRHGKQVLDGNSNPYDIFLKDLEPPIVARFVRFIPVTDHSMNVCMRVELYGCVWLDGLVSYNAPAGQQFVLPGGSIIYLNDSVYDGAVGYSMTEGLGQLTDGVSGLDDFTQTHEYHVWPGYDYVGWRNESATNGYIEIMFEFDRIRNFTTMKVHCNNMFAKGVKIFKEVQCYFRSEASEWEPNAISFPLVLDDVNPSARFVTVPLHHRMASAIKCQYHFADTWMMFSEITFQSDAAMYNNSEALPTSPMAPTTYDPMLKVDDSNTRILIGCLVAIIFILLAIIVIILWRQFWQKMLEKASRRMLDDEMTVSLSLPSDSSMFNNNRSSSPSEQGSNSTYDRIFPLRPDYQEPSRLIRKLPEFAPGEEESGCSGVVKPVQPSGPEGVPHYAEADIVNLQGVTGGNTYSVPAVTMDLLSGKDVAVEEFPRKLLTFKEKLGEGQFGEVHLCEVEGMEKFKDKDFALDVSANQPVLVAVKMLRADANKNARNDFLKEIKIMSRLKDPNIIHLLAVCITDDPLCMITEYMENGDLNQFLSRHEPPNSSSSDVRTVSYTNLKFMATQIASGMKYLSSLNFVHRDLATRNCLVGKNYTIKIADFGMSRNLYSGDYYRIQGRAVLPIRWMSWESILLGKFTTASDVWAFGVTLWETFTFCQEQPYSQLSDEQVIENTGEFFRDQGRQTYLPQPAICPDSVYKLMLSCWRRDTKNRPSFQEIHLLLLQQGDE
# Description: (§1) DDR1 and DDR2 binding assays were performed using Life Technologies LanthaScreen™ Europium Kinase Binding assay. […] IC50 values were determined in GraphPad Prism 7.0 software, using 4 parameter model: log (inhibitor) vs. response. IC50 values were converted in Ki using the Cheng-Prusoff equation (Ki-IC50/(1+ [Tracer]/Kd).
# DDR1 = target: T2, DDR1 (Homo sapiens, UniProt Q08345); test: LanthaScreen Europium Kinase Binding assay, DDR1; details: 5 nM DDR1, 20 nM Kinase Tracer 178, 1 h at rt; Ki from IC50 by Cheng-Prusoff; read-out: Ki DDR1
# T2 construct: purchased Carna Biosciences
# T2 sequence (Q08345 19-913): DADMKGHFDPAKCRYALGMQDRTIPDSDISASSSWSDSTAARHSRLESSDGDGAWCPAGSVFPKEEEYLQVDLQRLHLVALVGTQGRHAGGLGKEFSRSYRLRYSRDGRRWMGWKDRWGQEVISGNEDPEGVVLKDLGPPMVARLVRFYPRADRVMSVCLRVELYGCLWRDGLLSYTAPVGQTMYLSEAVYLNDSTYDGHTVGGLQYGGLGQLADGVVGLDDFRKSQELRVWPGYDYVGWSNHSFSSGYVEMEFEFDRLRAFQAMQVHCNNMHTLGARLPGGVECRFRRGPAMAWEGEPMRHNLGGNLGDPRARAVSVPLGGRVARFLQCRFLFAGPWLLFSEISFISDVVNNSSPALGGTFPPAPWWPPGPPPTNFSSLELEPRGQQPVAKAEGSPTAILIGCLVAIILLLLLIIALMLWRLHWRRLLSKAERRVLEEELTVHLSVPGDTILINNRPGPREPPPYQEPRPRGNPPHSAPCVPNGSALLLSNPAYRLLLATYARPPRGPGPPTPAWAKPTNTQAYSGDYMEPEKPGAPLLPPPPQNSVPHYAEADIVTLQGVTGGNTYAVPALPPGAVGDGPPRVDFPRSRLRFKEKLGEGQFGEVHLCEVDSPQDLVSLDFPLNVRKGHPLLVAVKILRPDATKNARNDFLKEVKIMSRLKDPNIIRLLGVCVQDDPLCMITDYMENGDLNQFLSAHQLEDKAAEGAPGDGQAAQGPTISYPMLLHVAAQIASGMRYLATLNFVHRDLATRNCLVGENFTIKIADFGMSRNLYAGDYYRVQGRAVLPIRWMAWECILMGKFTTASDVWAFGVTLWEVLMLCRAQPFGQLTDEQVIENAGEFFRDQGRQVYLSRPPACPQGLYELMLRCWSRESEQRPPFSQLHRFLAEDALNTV
# Description: as §1
SMILES,Ki (DDR2) [nM],Ki (DDR1) [nM]
"O=C(Nc1cccc(C(F)(F)F)c1)NC1CC2(C1)CN(C(=O)c1cnc3ccccn13)C2 [Example 1, 1-(2-(imidazo[1,2-a]pyridine-3-carbonyl)-2-azaspiro[3.3]heptan-6-yl)-3-(3-(trifluoromethyl)phenyl)urea]",5 to 25,< 5
"O=C(Nc1cccc(C(F)(F)F)c1)NC1CC2(C1)CN(C(=O)c1cnn3ccncc13)C2 [Example 2, 1-(2-(pyrazolo[1,5-a]pyrazine-3-carbonyl)-2-azaspiro[3.3]heptan-6-yl)-3-(3-(trifluoromethyl)phenyl)urea]",5 to 25,< 5
"O=C(Nc1cccc(C(F)(F)F)c1)NC1CC2(C1)CN(C(=O)c1cnc3[nH]ccc3c1)C2 [Example 3, 1-(2-(1H-pyrrolo[2,3-b]pyridine-5-carbonyl)-2-azaspiro[3.3]heptan-6-yl)-3-(3-(trifluoromethyl)phenyl)urea]",25 to 100,25 to 100
"O=C(Nc1cccc(C(F)(F)F)c1)NC1CC2(C1)CN(C(=O)c1cnn3ccsc13)C2 [Example 4, 1-(2-(pyrazolo[5,1-b]thiazole-7-carbonyl)-2-azaspiro[3.3]heptan-6-yl)-3-(3-(trifluoromethyl)phenyl)urea]",< 5,< 5
"CN1CCN(c2ccc3ncc(C(=O)N4CC5(CC(NC(=O)Nc6cccc(C(F)(F)F)c6)C5)C4)n3c2)CC1 [Example 5, 1-(2-(6-(4-methylpiperazin-1-yl)imidazo[1,2-a]pyridine-3-carbonyl)-2-azaspiro[3.3]heptan-6-yl)-3-(3-(trifluoromethyl)phenyl)urea]",5 to 25,< 5
"O=C(Nc1cccc(C(F)(F)F)c1)NC1CC2(C1)CN(C(=O)c1cnc3n1CCOC3)C2 [Example 6, 1-(2-(5,6-dihydro-8H-imidazo[2,1-c][1,4]oxazine-3-carbonyl)-2-azaspiro[3.3]heptan-6-yl)-3-(3-(trifluoromethyl)phenyl)urea]",5 to 25,< 5
"O=C(Nc1cccc(C(F)(F)F)c1)NC1CC2(C1)CN(C(=O)c1cnc3cccnn13)C2 [Example 7, 1-(2-(imidazo[1,2-b]pyridazine-3-carbonyl)-2-azaspiro[3.3]heptan-6-yl)-3-(3-(trifluoromethyl)phenyl)urea]",5 to 25,5 to 25
"Cn1cncc1C(=O)N1CC2(CC(NC(=O)Nc3cccc(C(F)(F)F)c3)C2)C1 [Example 8, 1-(2-(1-methyl-1H-imidazole-5-carbonyl)-2-azaspiro[3.3]heptan-6-yl)-3-(3-(trifluoromethyl)phenyl)urea]",5 to 25,< 5
"Cn1ccn2ncc(C(=O)N3CC4(CC(NC(=O)Nc5cccc(C(F)(F)F)c5)C4)C3)c12 [Example 9, 1-(2-(1-methyl-1H-imidazo[1,2-b]pyrazole-7-carbonyl)-2-azaspiro[3.3]heptan-6-yl)-3-(3-(trifluoromethyl)phenyl)urea]",< 5,< 5
"O=C(Nc1cccc(C(F)(F)F)c1)NC1CC2(C1)CN(Cc1cnc3cnccn13)C2 [Example 11, 1-(2-(imidazo[1,2-a]pyrazin-3-ylmethyl)-2-azaspiro[3.3]heptan-6-yl)-3-(3-(trifluoromethyl)phenyl)urea]",5 to 25,5 to 25
"O=C(Nc1cccc(C(F)(F)F)c1)NC1CC2(C1)CN(Cc1cnc3[nH]ncc3c1)C2 [Example 12, 1-(2-((1H-pyrazolo[3,4-b]pyridine-5-yl)methyl)-2-azaspiro[3.3]heptan-6-yl)-3-(3-(trifluoromethyl)phenyl)urea]",5 to 25,5 to 25
"O=C(Nc1cccc(C(F)(F)F)c1)NC1CC2(C1)CN(c1ccnc3[nH]ncc13)C2 [Example 15, 1-(2-(1H-pyrazolo[3,4-b]pyridin-4-yl)-2-azaspiro[3.3]heptan-6-yl)-3-(3-(trifluoromethyl)phenyl)urea]",< 5,< 5
"O=C(Nc1cc(F)cc(C(F)(F)F)c1)NC1CC2(C1)CN(C(=O)c1cnn3ccncc13)C2 [Example 16, 1-(3-fluoro-5-(trifluoromethyl)phenyl)-3-(2-(pyrazolo[1,5-a]pyrazine-3-carbonyl)-2-azaspiro[3.3]heptan-6-yl)urea]",5 to 25,< 5
"O=C(Nc1cc(C(F)(F)F)ccc1F)NC1CC2(C1)CN(C(=O)c1cnn3ccncc13)C2 [Example 17, 1-(2-fluoro-5-(trifluoromethyl)phenyl)-3-(2-(pyrazolo[1,5-a]pyrazine-3-carbonyl)-2-azaspiro[3.3]heptan-6-yl)urea]",5 to 25,< 5
"CC(C)(C)c1cc(NC(=O)NC2CC3(C2)CN(C(=O)c2cnn4ccncc24)C3)no1 [Example 18, 1-(5-(tert-butyl)isoxazol-3-yl)-3-(2-(pyrazolo[1,5-a]pyrazine-3-carbonyl)-2-azaspiro[3.3]heptan-6-yl)urea]",25 to 100,5 to 25
"N#Cc1cc(NC(=O)NC2CC3(C2)CN(C(=O)c2cnn4ccncc24)C3)cc(C(F)(F)F)c1 [Example 19, 1-(3-cyano-5-(trifluoromethyl)phenyl)-3-(2-(pyrazolo[1,5-a]pyrazine-3-carbonyl)-2-azaspiro[3.3]heptan-6-yl)urea]",< 5,< 5
"CC(C)(C)c1cc(NC(=O)NC2CC3(C2)CN(C(=O)c2cnn4ccsc24)C3)no1 [Example 20, 1-(5-(tert-butyl)isoxazol-3-yl)-3-(2-(pyrazolo[5,1-b]thiazole-7-carbonyl)-2-azaspiro[3.3]heptan-6-yl)urea]",5 to 25,< 5
"O=C(Nc1cccc(OC(F)(F)F)c1)NC1CC2(C1)CN(C(=O)c1cnn3ccsc13)C2 [Example 21, 1-(2-(pyrazolo[5,1-b]thiazole-7-carbonyl)-2-azaspiro[3.3]heptan-6-yl)-3-(3-(trifluoromethoxy)phenyl)urea]",< 5,< 5
"O=C(Nc1cncc(C(F)(F)F)c1)NC1CC2(C1)CN(C(=O)c1cnn3ccsc13)C2 [Example 22, 1-(2-(pyrazolo[5,1-b]thiazole-7-carbonyl)-2-azaspiro[3.3]heptan-6-yl)-3-(5-(trifluoromethyl)pyridin-3-yl)urea]",5 to 25,< 5
"COc1ccc(OC(F)(F)F)cc1NC(=O)NC1CC2(C1)CN(C(=O)c1cnn3ccsc13)C2 [Example 23, 1-(2-methoxy-5-(trifluoromethoxy)phenyl)-3-(2-(pyrazolo[5,1-b]thiazole-7-carbonyl)-2-azaspiro[3.3]heptan-6-yl)urea]",< 5,< 5
"CN(C)Cc1ccc(NC(=O)NC2CC3(C2)CN(C(=O)c2cnn4ccsc24)C3)cc1C(F)(F)F [Example 24, 1-(4-((dimethylamino)methyl)-3-(trifluoromethyl)phenyl)-3-(2-(pyrazolo[5,1-b]thiazole-7-carbonyl)-2-azaspiro[3.3]heptan-6-yl)urea]",5 to 25,< 5
"CN(C(=O)Nc1cccc(C(F)(F)F)c1)C1CC2(C1)CN(C(=O)c1cnn3ccncc13)C2 [Example 25, 1-methyl-1-(2-(pyrazolo[1,5-a]pyrazine-3-carbonyl)-2-azaspiro[3.3]heptan-6-yl)-3-(3-(trifluoromethyl)phenyl)urea]",25 to 100,5 to 25
"O=C(CC1CC2(C1)CN(C(=O)c1cnn3ccsc13)C2)Nc1cccc(C(F)(F)F)c1 [Example 27, 2-(2-(pyrazolo[5,1-b]thiazole-7-carbonyl)-2-azaspiro[3.3]heptan-6-yl)-N-(3-(trifluoromethyl)phenyl)acetamide]",< 5,< 5
"O=C(CC1CC2(C1)CN(C(=O)c1cnc3ccccn13)C2)Nc1cccc(C(F)(F)F)c1 [Example 28, 2-(2-(imidazo[1,2-a]pyridine-3-carbonyl)-2-azaspiro[3.3]heptan-6-yl)-N-(3-(trifluoromethyl)phenyl)acetamide]",5 to 25,< 5
"O=C(Nc1cccc(CC(F)(F)F)c1)NC1CC2(C1)CN(C(=O)c1cnn3ccsc13)C2 [Example 31, 1-(2-(pyrazolo[5,1-b]thiazole-7-carbonyl)-2-azaspiro[3.3]heptan-6-yl)-3-(3-(2,2,2-trifluoroethyl)phenyl)urea]",< 5,< 5
"Nc1cccn2ncc(C(=O)N3CC4(CC(NC(=O)Nc5cccc(C(F)(F)F)c5)C4)C3)c12 [Example 32, 1-(2-(4-aminopyrazolo[1,5-a]pyridine-3-carbonyl)-2-azaspiro [3.3]heptan-6-yl)-3-(3-(trifluoromethyl)phenyl)urea]",5 to 25,< 5
